Test results reported in patent US20260284066A1, “TYK2 INHIBITORS AND COMPOSITIONS AND METHODS THEREOF” (LYNK PHARMACEUTICALS CO. LTD., priority 2023, published 2026).
Values after ≈ are worked out from the molar mass of the structure shown.

How the values were obtained:
TYK2-JH2 domain = biological target: T1, TYK2-JH2 domain (Homo sapiens, UniProt P29597); experiment: Binding activity test for TYK2 JH2 domain (Tb-antibody/tracer FRET); conditions: for JAK1/TYK2 selectivity: ratio of JAK1 JH2 to TYK2 JH2 binding IC50; for IC50: read-out: TYK2 JH2 Binding IC50
T1 construct: JAK1-JH2 domain or TYK2-JH2 domain enzyme

[1] = system: Ba/F3-FL-TYK2-P760L cells; experiment: Anti-proliferative assay in Ba/F3-FL-TYK2-P760L cells (Cell-Titer Glo); type: cell-based
Protocol: These engineered Ba/F3-FL-TYK2-P760L cells were used to monitor JAK inhibitory activities of the compounds in the cellular. […] Cells were seeded at 2000/well of white flat bottom 96-well plates. The well containing medium only was used as background control. […] The test compounds were dissolved in DMSO to a stock concentration of 20 mM. […] The final DMSO concentration was 0.1%. […] The viability was measured by cellular ATP determination using the Cell-Titer Glo luciferase reagent (Promega). The Luminescence value was recorded by a multi-label reader Envision (PerkinElmer). Inhibition Rate was calculated relative to vehicle (DMSO) treated control wells using following formula:
wherein • RLU_compound=the relative light unit of cells treated with test compounds • RLU_blank=the relative light unit of medium with DMSO only • RLU_control=the relative light unit of cells treated with DMSO only

[2] = Microsomal metabolic stability assay; type: in vitro ADME, human; conditions: for microsomal CLint at 1 µM / half-life at 1 µM: human, liver microsomes, pH 7.4, human liver microsomes 0.5 mg/mL; for microsomal CLint at 1 µM: read-out: Human LM Clint; for half-life at 1 µM: read-out: Human LM T½
Protocol: Microsomal Metabolic Stability Assay
Microsomes were pre-incubated with test compound or control compounds for 5 min at 37° C. in 100 mM potassium phosphate buffer, pH 7.4, 1.0 mM EDTA. The reaction was initiated by addition of 15 μL of the NADPH regenerating system to 30 μL of each incubation mixture per time point. The final incubation condition was composed of 0.5 mg/mL microsomal protein, 1 μM test article/positive control, 2 mM NADPH. The 0-minute samples were prepared by addition of a 30 μL aliquot of each incubation mixture to 135 μL quench reagent to precipitate proteins. And then a 15 μL aliquot of the NADPH regenerating system was added. At 5, 15, 30 and 45 minutes, the reaction will be stopped by the addition of cold acetonitrile solution containing internal standard. The samples taken at all time points were centrifuged at 5000×g for 15 minutes. 50 μL of supernatant are taken into 96-well assay plates pre-added with 50 μL ultrapure water, and then analyzed by LC/MS/MS.
Concentrations of test articles, control compounds in the samples were determined by using LC/MS/MS method. Plotting of the chromatograms and peak area integrations are carried out by Analyst (AB Sciex).
In the determination of the in vitro elimination constant (ke) of the control compounds, the analyte/internal standard peak area ratios will be converted to percentage remaining (% Remaining) with the following equation:
The CLint of microsomes was calculated using the formula: CLint (mic)=0.693/T1/2/mg microsome protein per mL. The slope was measured by the natural logarithm of the percentage of the residual compound and time, T1/2 was calculated according to the following formula.

JAK1-JH2 domain = biological target: T2, JAK1-JH2 domain (Homo sapiens, UniProt P23458); experiment: Binding activity test for JAK1 JH2 domain (Tb-antibody/tracer FRET); conditions: read-out: JAK1 JH2 Binding IC50
T2 construct: JAK1-JH2 domain or TYK2-JH2 domain enzyme
Protocol: Binding Activity test for JH2 domain of JAK and TYK2
75 nL DMSO for high control and low control.
For low control, add 5 μL/well assay buffer. […] After enzyme system prepared, add 5 μL of Tb-antibody solution into each wells of assay plate. […] After Tb-antibody added, also add 5 μL of tracer into the assay plate. […] Incubate for 60 mins at 25° C. firstly and then continue to incubate the plate at 4° C. overnight. Read by envision in FRET mode. The Luminescence value was recorded by a multi-label reader Envision (PerkinElmer). Inhibition Rate was calculated relative to vehicle (DMSO) treated control wells using following formula:
wherein • RLU_compound=the relative light unit of cells treated with test compounds • RLU_low control=the relative light unit of medium with DMSO only • RLU_high control=the relative light unit of cells treated with DMSO only

TYK2 pathway = experiment: IFN-γ release in NK92 cells stimulated by IL-12 (ELISA); type: cell-based; conditions: Homo sapiens, IL-12 2.5 ng/mL
Description: IFN-γ Release in NK92 Cells Stimulated by IL-12
Purpose: To evaluate the inhibition activity of TYK2 inhibitors in NK92 cells on TYK2 pathway through ELISA method.

Kinetic solubility = type: physicochemical; conditions: aqueous buffer, 100 mM pH 7.4 phosphate buffer, 1% DMSO, room temperature, read-out: Kinetics Solubility_PBS7.4
Protocol: Aliquots of 8 μL of reference and test compound stock solutions (10 mM/5 mM) are added into 792 μL of 100 mM pH 7.4 phosphate buffer. The final DMSO concentration is 1%. Sample tubes are shaken for 2 hours at 1000 rpm at room temperature. Samples are centrifuged at 12000 rpm for 10 min to precipitate un-dissolved particles. And transfer the supernatants to a new tube or plate. Add 5 μL of samples (no diluted, 10 times diluted and 100 times diluted) and standard curve samples to 95 μL of ACN containing IS for LC-MS/MS analysis.

JAK2 = biological target: T3, JAK2 (Homo sapiens, UniProt O60674); experiment: JAK2 kinase activity, microfluidic assay (Caliper); type: biochemical; conditions: JAK2 1.5 nM, 1 mM ATP
T3 construct: purchased Carna Biosciences
Protocol: (§1) Testing for JAK1, JAK2 and TYK2 Kinase Activities
(§2) JAK activity was determined in the reaction buffer 50 mM HEPES, 0.01% Brij35, 10 mM MgCl2, 2 mM DTT by a microfluidic assay. The phosphorylation of a FAM labeled peptide substrate was monitored in the Caliper EZ Reader II (Perkin Elmer). The assay condition for each batch of enzyme (Carna Biosciences) was optimized to obtain 10% conversion rate of peptide substrate.
(§3) The test compounds were dissolved in DMSO to a stock concentration of 10 mM. Three-fold serially diluted compounds with top concentration of 5 μM were pre-incubated with JAK1, JAK2 or TYK2 for 10 min at ambient temperature. The final DMSO concentration of assay mixture was 1%. […] The reaction was stopped by adding 50 mM EDTA.
(§4) And the well without compound but with equivalent DMSO was defined as no inhibition. The percent inhibition was calculated by the following formula:
(§5) wherein • Conversion %_max=the conversion rate in the positive well without addition of compound • Conversion %_sample=the conversion rate of test compounds • Conversion %_min=the conversion rate in the well without addition of enzyme
(§6) The dose-response (percent inhibition) curve was plotted and IC50 values were determined by GraphPad software. The IC50 values of tested compounds were list in Table 3.

pSTAT1 = experiment: Phosphorylation inhibition of STAT in human whole blood (IFN-alpha stimulated, flow cytometry); type: cell-based; conditions: T-cell, CD3+ T cells, read-out: pSTAT1 inhibition in hWB (IC50)
Protocol: Phosphorylation Inhibition of STAT in Human Whole Blood Testing: The inhibitory potential of test articles in human whole blood assay was evaluated by the method of flow cytometry. IFN-alpha will activate JAK1 and TYK2 kinase in T cells by binding to IFN receptors, and then lead to phosphorylation of STAT1 and STAT2. The phosphorylated STAT1 enter nuclear and promote transcription and expression of IFN-gamma. To evaluate the efficacy of TYK2i in T cells, freshly collected human whole blood will be stimulated with certain unit of human IFN-alpha (Universal Type I IFN (1MU), R&D, 11200-2) for 20 mins in incubator. After stimulation, fix cells with PhosflowTM Fix Buffer I (BD, 557870), and then collect fixed cells by centrifugation (500 g, 8 min). Wash cells once with pre-cooled PBS, and then permeabilize cells with cold Perm Buffer III buffer (BD, 558050) for 45 mins on ice. Collect cells by centrifugation (600 g, 8 min) and washed twice with cold PBS. Stain cells with anti-human CD3(FITC Mouse Anti-Human CD3, BD, 555332) and anti-pSTAT1_Y701 (Alexa Fluor 647 Mouse Anti-Stat1 ([…]), BD, 612597) antibodies. Detect pSTAT1 by flow cytometry (CytoFlex S) and analyze data with FlowJo and GraphPad Prism 8 software. IC50 values of test articles were determined using 4-parameter logistic equation.

TYK2 = biological target: T4, TYK2 (Homo sapiens, UniProt P29597); experiment: TYK2 kinase activity, microfluidic assay (Caliper); type: biochemical; conditions: TYK2 20 nM, 1 mM ATP
T4 construct: purchased Carna Biosciences
T4 sequence (P29597 897-1176 limits assumed): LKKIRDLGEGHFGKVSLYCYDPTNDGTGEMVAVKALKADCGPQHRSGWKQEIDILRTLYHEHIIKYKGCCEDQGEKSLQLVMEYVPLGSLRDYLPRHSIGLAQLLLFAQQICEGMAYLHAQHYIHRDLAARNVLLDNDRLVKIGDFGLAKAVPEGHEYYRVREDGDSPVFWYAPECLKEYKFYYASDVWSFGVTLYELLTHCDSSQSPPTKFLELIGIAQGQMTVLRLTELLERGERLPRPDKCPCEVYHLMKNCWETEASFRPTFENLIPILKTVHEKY
Protocol: as §1, §2, §3, §4, §5, §6

JAK1 = biological target: T5, JAK1 (Homo sapiens, UniProt P23458); experiment: JAK1 kinase activity, microfluidic assay (Caliper); type: biochemical; conditions: JAK1 10 nM, 1 mM ATP
T5 construct: purchased Carna Biosciences
Protocol: as §1, §2, §3, §4, §5, §6

[3] = human liver microsomes 0.5 mg/mL, 1 μM

T3 sequence (O60674 849-1124 limits assumed): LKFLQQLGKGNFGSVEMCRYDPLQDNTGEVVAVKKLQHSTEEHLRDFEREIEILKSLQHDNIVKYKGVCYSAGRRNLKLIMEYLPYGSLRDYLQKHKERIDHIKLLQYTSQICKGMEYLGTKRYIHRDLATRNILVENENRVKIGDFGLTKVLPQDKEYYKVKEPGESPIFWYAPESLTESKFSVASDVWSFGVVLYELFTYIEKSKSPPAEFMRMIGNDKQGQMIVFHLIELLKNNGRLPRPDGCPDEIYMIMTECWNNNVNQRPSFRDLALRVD
T2 sequence (P23458 583-855 limits assumed): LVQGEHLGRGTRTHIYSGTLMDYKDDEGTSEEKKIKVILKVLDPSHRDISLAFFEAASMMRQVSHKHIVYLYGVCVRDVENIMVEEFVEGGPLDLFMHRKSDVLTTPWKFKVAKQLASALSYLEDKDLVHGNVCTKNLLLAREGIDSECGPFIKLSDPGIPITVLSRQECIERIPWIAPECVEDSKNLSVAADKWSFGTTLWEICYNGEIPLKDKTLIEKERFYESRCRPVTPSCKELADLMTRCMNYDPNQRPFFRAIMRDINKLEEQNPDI
T1 sequence (P29597 589-875 limits assumed): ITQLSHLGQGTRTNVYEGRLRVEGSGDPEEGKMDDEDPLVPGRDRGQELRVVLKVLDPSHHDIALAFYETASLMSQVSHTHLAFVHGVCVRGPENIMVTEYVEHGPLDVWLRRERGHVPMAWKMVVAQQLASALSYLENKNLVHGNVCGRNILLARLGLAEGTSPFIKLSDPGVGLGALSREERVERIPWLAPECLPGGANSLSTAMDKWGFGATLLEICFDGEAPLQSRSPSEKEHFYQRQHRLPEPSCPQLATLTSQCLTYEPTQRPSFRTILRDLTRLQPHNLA
T5 sequence (P23458 875-1153 limits assumed): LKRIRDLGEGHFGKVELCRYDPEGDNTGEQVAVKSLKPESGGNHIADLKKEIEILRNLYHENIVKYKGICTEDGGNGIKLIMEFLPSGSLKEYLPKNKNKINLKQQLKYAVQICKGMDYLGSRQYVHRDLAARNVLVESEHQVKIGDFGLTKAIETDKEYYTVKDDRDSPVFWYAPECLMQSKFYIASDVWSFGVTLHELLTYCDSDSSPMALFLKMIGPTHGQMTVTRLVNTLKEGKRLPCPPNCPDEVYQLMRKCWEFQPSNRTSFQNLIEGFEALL

Row | Compound | JAK1/TYK2 selectivity (TYK2-JH2 domain) | IC50 (TYK2-JH2 domain) [nM] | IC50 [1] [nM] | Human LM Clint [2, 3] [µL/min/mg] | Human LM T½ [2, 3] [min] | IC50 (JAK1-JH2 domain) [nM] | IC50 (TYK2 pathway) [nM] | solubility kinetic at 2 h (Kinetic solubility) [µM] | IC50 (JAK2) [nM] | IC50 (pSTAT1) [nM] | IC50 (TYK2) [nM] | IC50 (JAK1) [nM] | microsomal CLint at 1 µM [2] [µL/min/mg] | half-life at 1 µM [2] [min]
1 | [2H]C([2H])([2H])NC(=O)c1cnc(NC(=O)C2CC2)cc1Nc1ncn2ncc(C(C)C(F)(F)F)c2c1OC (single isomer, unassigned) [Example 5B, (S*)-6-(Cyclopropanecarboxamido)-4-((4-methoxy-3-(1,1,1-trifluoropropan-2-yl)pyrazolo[1,5-c]pyrimidin-5-yl)amino)-N-(methyl-d3)nicotinamide] | 716.05 | 0.197 | 62.3 | 47.61 | 29.11 | 141 |  |  |  |  |  |  |  | 
2 | [2H]C([2H])([2H])NC(=O)c1cnc(NC(=O)C2CC2)cc1Nc1ccc2ccn(CC(C)(F)F)c2c1OC [Example 17, 6-(Cyclopropanecarboxamido)-4-((1-(2,2-difluoropropyl)-7-methoxy-1H-indol-6-yl)amino)-N-(methyl-d3)nicotinamide] | 121.60 | 0.341 |  |  |  | 41.5 | 21.7 | 11.1 (≈ 5.12 µg/mL) |  |  |  |  |  | 
3 | [2H]C([2H])([2H])NC(=O)c1cnc(Nc2ccc(N3CCOCC3)cn2)cc1Nc1ccc2cnn(CC(C)(F)F)c2c1OC [Example 4, 4-((1-(2,2-Difluoropropyl)-7-methoxy-1H-indazol-6-yl)amino)-N-(methyl-d3)-6-((5-morpholinopyridin-2-yl)amino)nicotinamide] | 51.23 | 0.165 |  |  |  | 8.45 | 14 | 61.8 (≈ 34.3 µg/mL) | > 20000 | 152 | > 20000 | > 20000 |  | 
4 | CNC(=O)c1cnc(NC(=O)C2CC2)cc1Nc1ncc2cnn(CC(C)(F)F)c2c1OC [Example 23, 6-(Cyclopropanecarboxamido)-4-((1-(2,2-difluoropropyl)-7-methoxy-1H-pyrazolo[4,3-c]pyridin-6-yl)amino)-N-methylnicotinamide] | 398.70 | 0.315 |  |  |  | 126 | 17.4 |  | > 20000 |  | > 20000 | > 20000 |  | 
5 | [2H]C([2H])([2H])NC(=O)c1cnc(NC(=O)C2CC2)cc1Nc1ncn2ncc(C(C)C(F)(F)F)c2c1OC (single isomer, unassigned) [Example 5A, (R*)-6-(Cyclopropanecarboxamido)-4((4-methoxy-3-(1,1,1-trifluoropropan-2-yl)pyrazolo[1,5-c]pyrimidin-5-yl)amino)-N-(methyl-d3)nicotinamide] | >197.55 | 1.51 | > 5000 |  |  | > 298 |  |  |  |  |  |  | 57.5 | 24.1
6 | [2H]C([2H])([2H])NC(=O)c1cnc(NC(=O)C2CC2)cc1Nc1ncc2cnn(C(C)C(F)(F)F)c2c1OC (stereo not drawn) [Example 3, 6-(Cyclopropanecarboxamido)-4-((7-methoxy-1-(1,1,1-trifluoropropan-2-yl)-1H-pyrazolo[4,3-c]pyridin-6-yl)amino)-N-(methyl-d3)nicotinamide] | 177.55 | 0.682 | 164 |  |  | 121 |  |  |  |  |  |  | 5.8 | 239
7 | [2H]C([2H])([2H])NC(=O)c1nnc(NC(=O)C2CC2)cc1Nc1ncc2cnn(CC(C)(F)F)c2c1OC [Example 24, 6-(Cyclopropanecarboxamido)-4-((1-(2,2-difluoropropyl)-7-methoxy-1H-pyrazolo[4,3-c]pyridin-6-yl)amino)-N-(methyl-d3)pyridazine-3-carboxamide] | 79.86 | 0.271 |  |  |  | 21.6 | 8.94 |  | > 20000 |  | > 20000 | > 20000 | 4.16 | 333
8 | [2H]C([2H])([2H])NC(=O)c1cnc(NC(=O)C2CC2)cc1Nc1ncn2ncc(C(C)C(F)(F)F)c2c1OC (stereo not drawn) [Example 5, 6-(Cyclopropanecarboxamido)-4-((4-methoxy-3-(1,1,1-trifluoropropan-2-yl)pyrazolo[1,5-c]pyrimidin-5-yl)amino)-N-(methyl-d3)nicotinamide] | 590.59 | 0.271 | 52.4 | 50.06 |  | 160 |  |  |  |  |  |  |  | 27.7
